The conditions of series [1]: cited from earlier work.
Series [2] can be described thus: Elution of steroid from drug eluting leads/electrodes in conventional media (PBS without additives). The class given is physicochemical. To be noted: conventional media systems, e.g. media with just a surfactant; result in words. The source says:
The percent elution was less than 7% in 10 days from the controlled-release device (CRD) leads when PBS ([…]) without any additives was used.

The format of series [3] is physicochemical. As for the experimental part:
To evaluate buffers with different pH, Dexamethasone sodium phosphate can be dissolved in an elution media (e.g. one of the different embodiments of the invention disclosed herein). […] This concentration was about 10 times the concentration that might be observed if the drug from the typical device was completely eluted in about 75 mL of media.

SMILES strings stand for the structures. Like-named read-outs stand apart in the source and are kept apart here.

Turning to `OCc1ccccc1` [Benzyl alcohol, Phenylmethanol], the solubility in water in series [1] is 4 g/100 mL.
As to `C[C@@H]1C[C@H]2[C@@H]3CCC4=CC(=O)C=C[C@]4(C)[C@@]3(F)[C@@H](O)C[C@]2(C)[C@@]1(O)C(=O)COP(=O)(O)O` [Dexamethasone sodium phosphate], in series [2], the “elution in conventional media/solvents” value was “minimal”. Moreover, the solubility in water result was “water soluble” in series [1] (result in words, listed as dexamethasone sodium phosphate) and “freely soluble” in series [1] (result in words). Besides, in series [3], the “stability with respect to pH (order)” value is reported as “pH 4>pH 7.5>pH 9”.

The values above are taken from patent US8497133B1, “Terpene media compositions for eluting compounds from matrices and methods for making and using them” (Medtronic MiniMed, Inc., priority 2009, dated 2013).
